Source: PubChem BioAssay (NCI)
“And” between values parts separate entries of the source, which are not always exact repeats. Equal values may be shown once.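 Compound exposure: 48 hours, 5 concentrations, 96-well plates. GI50 marks 50% less growth. The concentration for full growth arrest is given as TGI.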

Tests used:
Assay in all cases: growth of human tumour cells (NCI), 48 h
786-0 renal = tested on: 786-0 renal
MDA-MB-231 breast = tested on: MDA-MB-231 breast
A549 NSCLC = tested on: A549 NSCLC
MCF7 breast = tested on: MCF7 breast
IGROV1 ovarian = tested on: IGROV1 ovarian
SK-OV-3 ovarian = tested on: SK-OV-3 ovarian
SNB-75 CNS = tested on: SNB-75 CNS
SNB-19 CNS = tested on: SNB-19 CNS
OVCAR-3 ovarian = tested on: OVCAR-3 ovarian
BT-549 breast = tested on: BT-549 breast

SMILES | GI50 (786-0 renal) | TGI (786-0 renal) | GI50 (MDA-MB-231 breast) | TGI (MDA-MB-231 breast) [µM] | GI50 (A549 NSCLC) | TGI (A549 NSCLC) [µM] | GI50 (MCF7 breast) | TGI (MCF7 breast) [µM] | GI50 (IGROV1 ovarian) | TGI (IGROV1 ovarian) [µM] | GI50 (SK-OV-3 ovarian) | TGI (SK-OV-3 ovarian) [µM] | GI50 (SNB-75 CNS) [µM] | TGI (SNB-75 CNS) [µM] | GI50 (SNB-19 CNS) | TGI (SNB-19 CNS) [µM] | GI50 (OVCAR-3 ovarian) | GI50 (BT-549 breast) | TGI (OVCAR-3 ovarian) [µM] | TGI (BT-549 breast) [µM]
COc1ccc(-c2cn[nH]c2-c2cc(OC)c(OC)c(OC)c2)cc1N | < 0.01 µM and 0.0611 µM | 86.5 µM and > 56.6 µM | < 0.01 µM and 0.063 µM | > 100 | < 0.01 µM and 0.0425 µM | > 100 | < 0.01 µM and 0.0266 µM | > 100 | < 0.01 µM and 0.0415 µM | > 100 | < 0.01 µM and 0.0833 µM | > 100 | < 0.01 | > 100 | < 0.01 µM and 0.0484 µM | > 100 | < 0.01 µM and 0.0281 µM | < 0.01 µM and 0.0374 µM | – | –
CC(=O)OC(C)(C)/C=C/C(=O)[C@](C)(O)[C@H]1[C@H](O)C[C@@]2(C)[C@@H]3CC=C4[C@@H](C[C@H](O)C(=O)C4(C)C)[C@]3(C)C(=O)C[C@]12C | – | 14.8 µM | – | < 0.01 | – | 11.4 | – | 7.66 | – | < 0.0132 | – | < 0.0234 | – | < 0.01 | – | 0.153 | – | – | 0.17 | 0.0201
O=C1CCC2(C=C(Br)C(=O)C(Br)=C2)O1 | 17 µM | 30.8 µM | 15.4 µM | 33.6 | 24.5 µM | 67.3 | 3.57 µM | 15.7 | 6.59 µM | 15.6 | 17.4 µM | 31.3 | 13.2 | 26 | 18.5 µM | 35.6 | 1.65 µM | 13.6 µM | 3.02 | 26.7
O=[N+]([O-])/C=C/c1c[nH]c2ccccc12 | 13.5 µM | 27.2 µM | 15.2 µM | 30.7 | 14 µM | 31.7 | 6.02 µM | 38.4 | 13.3 µM | 27.6 | 15.2 µM | 29.1 | 4.45 | 16.3 | 18.4 µM | 35.4 | 15.4 µM | 14.1 µM | 33 | 27.5
O=C(C(Br)Br)C(Br)C(Br)c1ccccc1 (stereo not drawn) | 3.47 µM | 11 µM | 5.4 µM | 20.6 | 20.4 µM | 52.4 | 3.58 µM | 13.4 | 3.56 µM | 11.5 | 17.2 µM | 31.1 | 19.9 | 53.4 | 17.4 µM | 35.2 | 2.72 µM | 3.97 µM | 6.44 | 14.1
Cc1[nH]c(/C=C2\C(=O)Nc3ccc(F)cc32)c(C)c1C(=O)NC[C@H](O)CN1CCOCC1 | 4.91 µM | > 10 µM | 4.25 µM | > 10 | 6.02 µM | > 10 | 3.11 µM | > 10 | 2.73 µM | > 10 | 2.95 µM | > 10 | 7.33 | > 10 | > 10 µM | > 10 | > 10 µM | 6.47 µM | > 10 | > 10
O=C(Oc1ccc(CCl)cc1)c1ccccc1 | 0.125 µM | 0.286 µM | 0.149 µM | 0.311 | 1.16 µM | 2.42 | 0.179 µM | 0.525 | 0.212 µM | 0.419 | 0.386 µM | 1.42 | 0.172 | 0.356 | 0.187 µM | 0.495 | 0.164 µM | 0.154 µM | 0.304 | 0.295
